Measured values: publication PMC7611678 (ACS catalysis, 2021)
Like-named read-outs stand apart in the source and are kept apart here. Blank lines part the entries; values can stand above or below the compound they belong to.

How the values were obtained:
HspUPO [1] = settings: 2 mM H2O2, McIlvaine buffer pH 7, 25 °C; glycosylated enzyme
HspUPO [2] = settings: 2 mM H2O2, McIlvaine buffer pH 4, 25 °C; glycosylated enzyme
HspUPO [3] = settings: 2 mM H2O2, McIlvaine buffer pH 7, 25 °C; glycosylated enzyme; remark: listed apart in the source
HspUPO [4] = settings: 2 mM H2O2, McIlvaine buffer pH 7, 25 °C; glycosylated enzyme; remark: listed apart in the source
HspUPO [5] = settings: 2 mM H2O2, McIlvaine buffer pH 5, 25 °C; glycosylated enzyme

- Km (HspUPO [1]): 18 ± 3.42 µM
SMILES: O=[N+]([O-])c1ccc2c(c1)OCO2 [5-Nitro-1,3-benzodioxole]

- Km (HspUPO [3]): 54 ± 8.16 µM
SMILES: c1ccc2[nH]ccc2c1 [6a, Indole]

The remaining lines, values behind:

SMILES: COc1ccc(CO)cc1OC [2a, 3,4-Dimethoxybenzyl alcohol]
- Km (HspUPO [2]): 758 ± 100 µM

SMILES: OCc1ccccc1 [Benzyl alcohol]
- Km (HspUPO [4]): 680 ± 0.14 µM

SMILES: COc1cccc(OC)c1O [2,6-Dimethoxyphenol]
- Km (HspUPO [5]): 57.5 ± 5 µM
